{
  "source": "patent US8338451B2",
  "about": "“Polysubstituted derivatives of 2-heteroaryl-6-phenylimidazo[1,2-a]pyridines, and preparation and therapeutic use thereof” (Sanofi, priority 2008, dated 2012)",
  "data": [
    {"biological_target": "T1, mouse Nurr1 receptor (Mus musculus, UniProt Q06219)", "T1 construct": "a cell line (N2A) endogenously expressing the mouse Nurr1 receptor; host or cells: Neuro-2A (N2A) mouse neuroblastoma cells stably transfected with 8NBRE-luciferase", "T1 sequence (Q06219 whole entry)": "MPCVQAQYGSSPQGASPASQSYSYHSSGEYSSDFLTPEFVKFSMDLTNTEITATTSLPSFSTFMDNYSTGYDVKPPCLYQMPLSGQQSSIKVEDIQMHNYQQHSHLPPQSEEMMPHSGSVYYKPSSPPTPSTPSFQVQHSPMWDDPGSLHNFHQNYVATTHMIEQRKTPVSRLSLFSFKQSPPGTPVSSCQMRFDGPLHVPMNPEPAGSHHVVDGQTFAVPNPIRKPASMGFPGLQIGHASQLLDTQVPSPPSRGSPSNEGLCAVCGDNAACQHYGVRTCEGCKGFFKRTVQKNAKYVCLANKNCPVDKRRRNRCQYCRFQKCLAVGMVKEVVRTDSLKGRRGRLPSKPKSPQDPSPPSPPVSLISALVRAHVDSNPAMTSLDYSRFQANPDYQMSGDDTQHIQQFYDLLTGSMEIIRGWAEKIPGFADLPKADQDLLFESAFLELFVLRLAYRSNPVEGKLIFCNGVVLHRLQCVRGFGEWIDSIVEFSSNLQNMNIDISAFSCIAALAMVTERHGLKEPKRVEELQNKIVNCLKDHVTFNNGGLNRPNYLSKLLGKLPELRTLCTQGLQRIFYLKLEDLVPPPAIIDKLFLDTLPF", "test": "In vitro activity on N2A cells: NBRE-luciferase reporter (NOT/Nurr1 modulation)", "format": "cell-based", "conditions": "N2A (Neuro-2A) cells stably transfected with 8NBRE-luciferase, 24 hours incubation", "description": "Evaluation of the In Vitro Activity on N2A Cells The activity of the compounds according to the invention was evaluated on a cell line (N2A) endogenously expressing the mouse Nurr1 receptor and stably transfected with the NOT binding response element (NBRE) coupled to the luciferase reporter gene. The EC50 values are between 0.01 and 10 μM. The tests were carried out according to the procedure described below. The Neuro-2A cell line comes from a standard commercial source (ATCC). The Neuro-2A clone was obtained from a spontaneous tumour originating from a mouse A albino strain, by R. J Klebe et el. This Neuro-2A line is then stably transfected with 8NBRE-luciferase. The N2A-8NBRE cells are cultured to confluence in 75 cm^2 culture flasks containing DMEM supplemented with 10% of foetal calf serum, 4.5 g/l of glucose and 0.4 mg/ml of geneticin. After one week of culture, the cells are recovered with 0.25% trypsin for 30 seconds, and then resuspended in DMEM without phenol red, containing 4.5 g/l of glucose and 10% of Hyclone defatted serum, and deposited in white, transparent-bottom 96-well plates. The cells are deposited at a rate of 60 000 per well in 75 μl for 24 hours before the addition of the products. […] On the day of the measurement, an equivalent volume (100 μl) of Steadylite is added to each well, followed by a waiting period of 30 minutes in order to obtain complete lysis of the cells and maximum production of the signal. The plates are then measured in a microplate luminescence counter after having been sealed with an adhesive film. […] Each product concentration is diluted beforehand in culture medium before incubation with the cells thus containing a final concentration of 0.625% of DMSO.", "units": {"EC50": "µM"}, "values": [
      {"smiles": "OCc1cccc(-c2ccc3nc(-c4cccnc4)cn3c2)c1", "note": "[Compound 7]", "EC50": 0.0016},
      {"smiles": "Cc1cc(-c2cn3cc(-c4cccc(C(C)(C)O)c4)ccc3n2)no1", "note": "[Compound 86, 2-{3-[2-(5-methylisoxazol-3-yl)imidazo[1,2-a]pyridin-6-yl]phenyl}propan-2-ol]", "EC50": 0.071},
      {"smiles": "OCc1ccc(-c2ccc3nc(-c4coc5ccccc45)cn3c2)cc1", "note": "[Compound 24, [4-[2-(benzofuran-3-yl)imidazo[1,2-a]pyridin-6-yl]phenyl]methanol]", "EC50": 0.05},
      {"smiles": "OCc1cccc(-c2ccc3nc(-c4ccc5c(c4)OCO5)cn3c2)c1", "note": "[Compound 6, {3-[2-(1,3-benzodioxol-5-yl)imidazo[1,2-a]pyridin-6-yl]phenyl}methanol]", "EC50": 0.0009},
      {"smiles": "OCc1c(F)ccc(-c2ccc3nc(-c4cc5ccccc5o4)cn3c2)c1F", "note": "[Compound 79, [3-(2-benzofuran-2-ylimidazo[1,2-a]pyridin-6-yl)-2,6-difluorophenyl]methanol]", "EC50": 0.005},
      {"smiles": "OCc1c(F)cccc1-c1ccc2nc(-c3cccs3)cn2c1", "note": "[Compound 68, [2-fluoro-6-(2-thien-2-ylimidazo[1,2-a]pyridin-6-yl)phenyl]methanol]", "EC50": 0.02},
      {"smiles": "CC(C)(O)c1cccc(-c2ccc3nc(-c4ccccn4)cn3c2)c1", "note": "[Compound 50, 2-[3-(2-pyridin-2-ylimidazo[1,2-a]pyridin-6-yl)phenyl]propan-2-ol]", "EC50": 0.202}
    ]}
  ]
}
